The results in this text go back to patent US20250161312A1, “A METHOD FOR THE TREATMENT OF CHEMOTHERAPEUTIC DRUG-INDUCED NEPHROTOXICITY” (INSTITUT NATIONAL DE LA SANTÉ ET DE LA RECHERCHE MÉDICALE, priority 2022, published 2025).

One data set deals with H1975 cells. The data set can be described thus: Cell efflux (flow cytometry) in H1975 cells. Conditions: cancer cells in response to cisplatin, data not shown. The data set is classed as cell-based. As to the method:
The basic cell efflux function was assessed using an EFLUXX-ID Green Multidrug Resistance Assay Kit (ENZO Life Sciences). Briefly, 2.5×10^5 cells/condition were collected, washed with PBS, and incubated with the EFLUXX-ID Green Detection Reagent for 30 minutes at 37° C., and then efflux was measured immediately by flow cytometry (CytoFLEX LX, Beckman Coulter). All experiments were performed in triplicate, with the measurement of 10,000 individual cells. Data were analyzed using Kaluza Analysis Software (Beckman Coulter).

For a further data set, the system named is C57BL6/J mice. The data set can be described thus: Acute cisplatin-induced kidney injury model. The data set is classed as in vivo.
Data set [1] deals with LLC1 tumors in C57BL6/J mice. The data set can be described thus: LLC1 in vivo tumor model (syngeneic, sub-chronic cisplatin). As to the method: FIG. 1. Schematic representation of the different animal procedures. (A) Acute cisplatin-induced kidney injury. […] (B) Sub-chronic cisplatin-induced kidney injury. […] (C) KW-6002 administration schedule in the acute model. […] (D) KW-6002 administration schedule in the sub-chronic model.
LLC1 cells (Lewis Lung Cancer cells, ATCC® CRL-1642™) were cultured in DMEM with 10% fetal calf serum and penicillin-streptomycin. LLC1 cells ([…]) in PBS: matrigel (1:1, for a total volume of 100 μL) were subcutaneously injected in the right flank of animals. Tumors were measured twice a week with calipers and their volumes were estimated using the following equation: ½ (length×width2).
Prior sacrifice by cervical dislocation, retro-orbital blood samples were collected in heparinized tubes and centrifuged for 10 min at 2000 rpm at room temperature. Renal function was assessed by Blood urea nitrogen (BUN) measurement using a AU480 Chemistry Analyzer (Beckman Coulter). At the time of sacrifice, kidneys or LLC1 tumors were harvested and stored in either “RNA later” solution (Thermo Fisher), 4% neutral buffered formalin or snap-frozen in liquid nitrogen.
Paraffin-embedded sections (3 μm thick) were deparaffinized with xylene and rehydrated in successive ethanol dilutions. Then, antigen retrieval was done by incubation in sub-boiling 10 mM sodium citrate buffer. Tissues were permeabilized in a 0.4% Triton X-100 solution, and nonspecific binding was blocked with a 5% BSA solution in TBS for 2 hours. Sections were then incubated overnight with an anti-γH2AX antibodies (1:50; no. 9718, Cell Signaling Technology). After washing, the secondary antibody (A10042) was incubated for 45 minutes at room temperature. Again, after washing, the nuclei were stained with a 300 nM DAPI solution (D1306, Life Technologies, Thermo Fisher Scientific). The slides were analyzed using a Zeiss LSM 880 confocal microscope. Quantification was performed using ImageJ. For immunofluorescence studies in free-floating sections, mice were deeply anesthetized with pentobarbital sodium (50 mg/kg, i.p.) and then transcardially perfused with cold NaCl (0.9%) and 4% paraformaldehyde in PBS (pH 7.4). Kidneys were removed, post-fixed for 24 hours in 4% paraformaldehyde, and cryoprotected in 30% sucrose before being frozen at −40° C. in isopentane (methyl-butane) and stored at −80° C. Longitudinal kidney sections (40 μm) were obtained using a Leica cryostat. Free-floating sections were stored in PBSazide (0.2%) at 4° C. Longitudinal kidney sections were incubated with a donkey serum (D9663, MilliporeSigma) at 10% in PBS Triton X-100 (0.2%) for 1 hour and then incubated with anti-A2AR primary antibody (1:50; GP-Af1000, Frontiers Institute) for 72 hours at 4° C. in Signal Boost (8114, Cell Signaling Technology). Alexa Fluor 568-conjugated secondary antibodies (1:500; Life Technologies, Thermo Fisher Scientific) were incubated overnight at room temperature. Lectin staining was performed by incubating sections for 1 hour at room temperature with Lotus tetragonolobus FITC conjugate (Vector Laboratories, FL-1321-2) diluted to 2 μg/mL in blocking medium. Sections were counterstained with DAPI (1:5,000; no. 62247, Thermo Fisher Scientific) and mounted on superfrost slides and left to dry. Then, they were covered with Vectashield Vibrance Antifade Mounting Medium (H-1700, Vector Laboratories). Images were acquired using a Zeiss LSM 710 confocal laser-scanning microscope at ×20 magnification. 3D reconstruction of confocal image stacks was performed using Imaris software (Bitplane).
Reverse transcription was performed on 1 μg of RNA using high-capacity cDNA reverse transcription kit (Thermo Fisher), according the manufacturer's recommendation. Real time PCR was performed on a StepOne device using Taqman Gene Expression Master Mix (Thermo Fisher), following manufacturer's recommendations. […]

Data set [2] has as its system mEERL tumors in C57B16/J mice. The data set can be described thus: mEERL in vivo tumor model (HPV+ squamous carcinoma). As to the method: FIG. 8. […] The arrow represents cisplatin and/or PBS injection. […] (E) Absolute tumor sizes in animals in the different groups.
We used a validated murine model of HPV+ oropharyngeal squamous cell carcinoma as previously described (noncommercial) (77). This model consists of oropharyngeal epithelial cells from C57Bl/6 male mice that stably express the HPV16 viral oncogenes E6 and E7, H-Ras, and luciferase (mEERL cells). mEERL cells were grown in a T75 flask until confluent, after which cells were trypsinized and harvested, washed 3 times with sterile PBS, and resuspended in 1 mL sterile PBS to the appropriate concentration. Mice were injected s.c. into the right flank with 20 μL solution containing either 1,000,000 mEERL cells or PBS (vehicle). The day of mEERL cell injection is indicated as day −14. Tumor volume was monitored using Vernier digital calipers.

Data set [3] is described as follows: Cumulative model of cisplatin toxicity. The data set is classed as in vivo. Conditions: FIG. 5. An excerpt:
FIG. 5. […] BUN quantification.

For the compound `CCn1c(=O)c2c(nc(/C=C/c3ccc(OC)c(OC)c3)n2C)n(CC)c1=O` [KW-6002, 8-[(E)-2-(3,4-dimethoxyphenyl)vinyl]-1,3-diethyl-7-methyl-3,7-dihydro-1H-purine-2,6-dione], in the data set on H1975 cells, the efflux result is recorded as “significantly reduced”. Also, the “histological lesions (histological score of renal injury)” value in the data set on C57BL6/J mice (A model, FIG. 2B) was “less severe histological lesions”. Further, in the data set on C57BL6/J mice (A model, kidney), the “mRNA levels of I16, change vs. cisplatin” value is listed as −73.8±5.3% and the “mRNA levels of Tnfα, change” value is listed as −36.0±4.3%. For the same compound, in the data set on C57BL6/J mice (A model, kidney mRNA), the “reduction of KIM-1 expression vs. cisplatin” value is given as −95.2±0.7% and the “reduction of NGAL expression vs. cisplatin” value was −55.5±5.9%. For the same compound, the “reduction of BUN vs. cisplatin” value in the data set with C57BL6/J mice (A model: cisplatin 10 mg/kg single i.p., KW-6002 3 mg/kg i.p. daily day-1 to day 2) is listed as −42.9±7.4%. Besides, in data set [1] (KW-6002-treated mice, FIG. 4A), the “cisplatin accumulation (platinum levels) in the kidney” value is “lowered”. Also, the “cisplatin accumulation (platinum levels) in the tumors” value in data set [1] (KW-6002-treated mice, FIG. 4B) was “remained unchanged”. In addition, the “anti-tumoral response to cisplatin (tumor size)” value in data set [1] (co-treatment with cisplatin, FIG. 3) is given as “did not compromise the anti-tumoral response to cisplatin”. Besides, in data set [1] (in vivo LLC1 syngeneic model), the “cisplatin-induced DNA damage, H2AX+ cells in tumors” value is on record as “increased number of H2AX+ cells”. Further, in data set [1] (qPCR, FIG. 4A), the “expression of some efflux transporters in kidneys” value is listed as “significantly increased”. For the same compound, in data set [1] (qPCR, FIG. 4B), the “transporter expression in tumors” value was “no expression changes”. Also, the “ability to protect from cisplatin-induced kidney injury” value in data set [1] (tumor-bearing mice) is listed as “preserved”. For the same compound, the “cisplatin-induced pain hypersensitivity (von Frey)” value in data set [2] (FIG. 8D) is listed as “alleviated cisplatin-induced pain hypersensitivity”. Besides, the “tumor control by cisplatin (tumor size)” value in data set [2] (FIG. 8E) is “significantly potentiated tumor control by cisplatin”. Moreover, in data set [2] (tumor-bearing mice, FIG. 8A), the “indicators of renal toxicity (KIM-1) induced by cisplatin” value was “limited”. The “expression of Tnf induced by cisplatin” value in data set [2] (tumor-bearing mice, FIG. 8B) is “limited”. The “expression of I16 induced by cisplatin” value in data set [2] (tumor-bearing mice, FIG. 8C) is “limited”. The “BUN quantification, cisplatin-induced kidney injury” value in data set [3] is “protects from cisplatin-induced kidney injury”.
